One compound from paper PMC4841536, “Characterization of the Anti-HCV Activities of the New Cyclophilin Inhibitor STG-175” (PLoS ONE, 2016) can be followed below.

Molecules are shown by their SMILES. Like-named read-outs stand apart in the source and are kept apart here.

Experiment [1] has as its system subgenomic Con1 (GT1b) replicon in Huh-7 cells. Conditions: 0.25, 0.5 or 1 μM, 7 passages with drug then 3 passages without; HCV RNA by RT-qPCR. On the procedure:
Cells were grown until they reached 90% confluence, trypsinized and re-seeded at the same cell concentration in a new 10-cm dish with the same drug concentration. […] Then drugs were removed to allow viral replication rebound to occur. At each passage, sample of cells were collected, RNA extracted according to the manufacturer's instructions and analyzed by RT-PCR for HCV RNA levels.
Fig 3 Replicon clearance, replication rebound and resistance analyses. […] Then drugs were removed to allow viral replication rebound to occur. At each passage, samples of cells were collected, RNA extracted and analyzed by RT-PCR for HCV RNA levels. B. Emergence of resistance: Con1 replicon Huh-7 cells were passaged 22 times in the absence or presence of STG-175 or selected DAAs. At each passage, sample of cells were collected, RNA extracted and analyzed by RT-PCR for HCV RNA levels. C. […] Data are expressed as number of HCV RNA copies per cell. […] Data are expressed as mean of relative light units and calculated EC50s are presented. […] E. Degree of resistance of D320E and Y321N Con1 variants: Left panel. Wild-type (WT), D320E and D320/Y321N NS5A Con1 RNA were electroporated into Huh7.5.1 cells and replication monitored over 8 days by quantifying the levels of intracellular HCV RNA. Right panel. Same as just above except that increasing concentrations of STG-175 were added at the time of the electroporation. […]
(Real-time PCR tracks product formation cycle by cycle.)

Experiment [2] shares this test system. It is filed as cell-based, hepatitis C virus. The settings on record: for passage at which resistant variants emerged (CypI comparison): Fig 3C. On the procedure:
Huh-7 cell expressing subgenomic Con1 (GT1b) replicon were seeded in a 10 cm dish at a density of 3 × 10^5 cells per culture flask in complete DMEM (with G418) with STG-175 or selected drugs. Cells were grown until they reached 90% confluence, trypsinized and re-seeded at the same cell concentration in a new 10-cm dish with the same drug concentration. Cells were passaged 22 times in the presence of drugs. At each passage, sample of cells were collected, RNA extracted according to the manufacturer's instructions and analyzed by RT-PCR for HCV RNA levels.
(§1) Fig 3 Replicon clearance, replication rebound and resistance analyses. […] Then drugs were removed to allow viral replication rebound to occur. At each passage, samples of cells were collected, RNA extracted and analyzed by RT-PCR for HCV RNA levels. B. Emergence of resistance: Con1 replicon Huh-7 cells were passaged 22 times in the absence or presence of STG-175 or selected DAAs. At each passage, sample of cells were collected, RNA extracted and analyzed by RT-PCR for HCV RNA levels. C. […] Data are expressed as number of HCV RNA copies per cell. […] Data are expressed as mean of relative light units and calculated EC50s are presented. […] E. Degree of resistance of D320E and Y321N Con1 variants: Left panel. Wild-type (WT), D320E and D320/Y321N NS5A Con1 RNA were electroporated into Huh7.5.1 cells and replication monitored over 8 days by quantifying the levels of intracellular HCV RNA. Right panel. Same as just above except that increasing concentrations of STG-175 were added at the time of the electroporation. […] STG-175 is taken as the substance from the printed x-axis title 'STG-175 in Log nM'.
We then examined the development of resistance to STG-175. GT1b Con1 sub-genomic replicon cells were grown in the presence of STG-175 (0.25 and 1 μM), telaprevir (2.5 and 10 μM), boceprevir (2.5 and 10 μM), daclatasvir 100 pM and 1 nM) or a combination of STG-175 (0.25 μM) with either telaprevir (2.5 μM), boceprevir (2.5 μM) or daclatasvir (100 pM) for 22 successive passages. At each passage, fresh drug was added and a sample of cells was taken to quantify HCV RNA levels by RT-qPCR.

Experiment [3] deals with Con1 (GT1b) replicon colonies A, B, C (D320E NS5A). The experiment can be described thus: microbe, parasite or virus in culture. The experiment is classed as cell-based, hepatitis C virus. Conditions: for EC50: Hepatitis C virus, GT1B. On the procedure: (§2) Huh-7 cells expressing subgenomic Con1 (GT1b) replicon were incubated with STG-175 and 100 μg/ml of G418 in 10 cm CellBIND™ plates (Corning). Cells were split every 3 days at 1:6 and G418 concentration was increased sequentially to 200 and 300 μg/mL. […] At this point, medium was changed every 3–4 days until emergence of resistant clones. Clones were individually transferred to 24-well CellBIND using cloning disks. […] Each clone was split in 2 identical plates and was separately maintained under 0.5 or 1.0 μM STG-175 and 100 μg/mL of G418. Once the colonies were established, G418 concentration was increased to 300 μg/mL. […] Briefly, total RNA was prepared using the RNeasy Plus Mini Kit as per manufacturer’s recommendation. Two hundred ng of total RNA was used for cDNA production using primers specific to the NS3-NS5B region or oligo(dT)18 using AccuScript High Fidelity 1st Strand cDNA Synthesis Kit (Stratagene). Amplicons were generated using primers defining the sequence at its 5’ and 3’ ends. The amplicons were gel purified, quantitated and sequenced using primers located internally in NS5A or NS5B reading to the 5’ and 3’ ends. Sequences were assembled and analyzed using the ClustalW algorithm within the MacVector program. The sequencing was conducted twice to ensure the authenticity of the nucleotide substitutions.
as §1
(§3) We then sequenced the NS3-NS5B region of the HCV variants (colonies), which emerged after multiple passages under STG-175 selection. […] The five STG-175-resistant variants (5 colonies A to E) were then retested for STG-175 resistance by exposing them to increasing concentrations of STG-175 as we described previously.

Experiment [4] concerns Con1 (GT1b) replicon colonies D, E (D320E/Y321N NS5A). The experiment can be described thus: microbe, parasite or virus in culture. The experiment is classed as cell-based, hepatitis C virus. Conditions: for EC50: Hepatitis C virus, GT1B. The procedure:
as §2, §1, §3

On to `CC=CCC(C)C(O)C1C(=O)NC(CC)C(=O)N(C)C(CSCCCCO)C(=O)N(C)C(CC(C)(C)O)C(=O)NC(C(C)C)C(=O)N(C)C(CC(C)C)C(=O)NC(C)C(=O)NC(C)C(=O)N(C)C(CC(C)C)C(=O)N(C)C(CC(C)C)C(=O)N(C)C(C(C)C)C(=O)N1C` (stereo not shown) [STG-175], for which the “viral replication rebound after drug removal” value in experiment [1] was “no replication rebound was observed”. Moreover, the “cell culture passages required to detect emergence of resistant replicon colonies” value in experiment [2] is > 16 passages. The “passage at which resistant variants emerged (CypI comparison)” value worked out at 18 passage in experiment [2] (0.25 μM of drug selection) and 21 passage in experiment [2] (1 μM of drug selection). Further, the “passage at which resistance began” value in experiment [2] (1 μM drug pressure, first account (Fig 3B)) is recorded as 19 passage. Besides, in experiment [3], the “average fold higher resistance than wild-type colonies, colonies A, B and C” value was 10 fold. In experiment [3], the “enhancement of resistance compared to wild-type replicon, colony A” value was found to be 7.2 fold. The “enhancement of resistance compared to wild-type replicon, colony B” value in experiment [3] was found to be 7.8 fold. Further, the “enhancement of resistance compared to wild-type replicon, colony C” value in experiment [3] stood at 15.1 fold. Also, the EC50 in experiment [3] (read-out: EC50, colony A (Clone A)) was 114 nM; in experiment [3] (read-out: EC50, colony B (Clone B)), 122 nM; in experiment [3] (read-out: EC50, colony C (Clone C)), 238 nM; in experiment [3] (read-out: average EC50, colonies A, B and C) it was 158 nM; in experiment [4] (read-out: EC50, colony D (Clone D)), 766 nM; in experiment [4] (read-out: EC50, colony E (Clone E)) it was 297 nM. For the same compound, the 50% effective concentration (EC50) in experiment [4] (read-out: average EC50, colonies D and E) was determined as 531 nM. In experiment [4], the “average fold higher resistance than wild-type colonies, colonies D and E” value is reported as 33.8 fold. Besides, the “enhancement of resistance compared to wild-type replicon, colony D” value in experiment [4] is given as 48.8 fold. In addition, the “enhancement of resistance compared to wild-type replicon, colony E” value in experiment [4] was determined as 18.9 fold.

By EC50 is commonly meant the midpoint of the concentration-response curve.
